One may read the IC50 as the midpoint of a concentration-inhibition curve. High values mean weaker potency, low ones greater potency.

A value given as a limit tells only on which side of the number the result lay.

The results in this text go back to article PMC5291411, “Cytotoxic conjugates of betulinic acid and substituted triazoles prepared by Huisgen Cycloaddition from 30-azidoderivatives” (PLoS ONE, 2017).

What all share (type): cell-based
The subject of one test is A549. The experiment in a line: Cytotoxic MTS assay, A549. The conditions noted are these: Homo sapiens, 72 h, lung adenocarcinoma. The text has this:
(§1) Cytotoxic activity of all synthesized compounds was investigated in vitro against eight human cancer cell lines and two non-tumor fibroblasts using the standard MTS test (Table 1). The cancer cell lines were derived from T-lymphoblastic leukemia CCRF-CEM, leukemia K562 and their multiresistant counterparts expressing P-glycoprotein, MRP1 and LRP proteins (CEM-DNR, K562-TAX), solid tumors including lung (A549) and colon (HCT116, HCT116p53-/-) carcinomas, osteosarcoma cell line (U2OS), and for comparison, tests were performed on two human non-cancer fibroblast cell lines (BJ, MRC-5).
(§2) Biological assays were performed in concordance with our previous publications [[29], [58]; [60]; [61]]. All cells (if not indicated otherwise) were purchased from the American Tissue Culture Collection (ATCC). The CCRF-CEM line is derived from T lymphoblastic leukemia, evincing high chemosenzitivity, K562 represent cells from an acute myeloid leukemia patient sample with bcr-abl translocation, U2OS line is derived from osteosarcoma, HCT116 is colorectal tumor cell line and its p53 gene knock-down counterpart (HCT116p53-/-, Horizon Discovery Ltd, UK) is a model of human cancers with p53 mutation frequently associated with poor prognosis, A549 line is lung adenocarcinoma. The daunorubicin resistant subline of CCRF-CEM cells (CEM-DNR bulk) and paclitaxel resistant subline K562-TAX were selected in our laboratory by the cultivation of maternal cell lines in increasing concentrations of daunorubicine or paclitaxel, respectively. The CEM-DNR bulk cells overexpress MRP-1 and P-glycoprotein protein, while K562-TAX cells overexpress P-glycoprotein only. Both proteins belong to the family of ABC transporters and are involved in the primary and/or acquired multidrug resistance phenomenon. MRC-5 and BJ cell lines were used as a non-tumor control and represent human fibroblasts. The cells were maintained in nunc/corning 80 cm^2 plastic tissue culture flasks and cultured in cell culture medium according to ATCC or Horizon recommendations (DMEM/RPMI 1640 with 5 g/L glucose, 2 mM glutamine, 100 U/mL penicillin, […] streptomycin, 10% fetal calf serum, and NaHCO3).
(§3) MTS assay was performed at Institute of Molecular and Translational Medicine by robotic platform (HighResBiosolutions). Cell suspensions were prepared and diluted according to the particular cell type and the expected target cell density (25000–35000 cells/mL based on cell growth characteristics). Cells were added by automatic pipetor (30 μL) into 384 well microtiter plates. All tested compounds were dissolved in 100% DMSO and four-fold dilutions of the intended test concentration were added in 0.15 μL aliquots at time zero to the microtiter plate wells by the echoacustic non-contact liquid handler Echo550 (Labcyte). The experiments were performed in technical duplicates and three biological replicates at least. The cells were incubated with the tested compounds for 72 h at 37°C, in a 5% CO2 atmosphere at 100% humidity. At the end of the incubation period, the cells were assayed by using the MTS test. Aliquots (5 μL) of the MTS stock solution were pipetted into each well and incubated for additional 1–4 h. After this incubation period, the optical density (OD) was measured at 490 nm with an Envision reader (Perkin Elmer). Tumor cell survival (TCS) was calculated by using the following equation: TCS = (ODdrug-exposed well/mean ODcontrol wells) × 100%. The IC50 value, the drug concentration that is lethal to 50% of the tumor cells, was calculated from the appropriate dose-response curves in Dotmatics software.
On the technique in general: Tetrazolium assays rely on reduction of a dye to a coloured formazan, in cell work by metabolically active cells.

A further test concerns HCT116p53-/-. The experiment in a line: Cytotoxic MTS assay, HCT116p53-/-. The conditions noted are these: Homo sapiens, 72 h, p53 knock-down colorectal tumor.
From the text: as §1, §2, §3

A further test concerns HCT116. In words: Cytotoxic MTS assay, HCT116. Particulars: Homo sapiens, HCT-116, 72 h, colorectal tumor.
From the text: as §1, §2, §3

The test system of the next test is CEM-DNR. In words: Cytotoxic MTS assay, CEM-DNR. Particulars: Homo sapiens, 72 h, daunorubicin resistant subline of CCRF-CEM.
From the text: as §1, §2, §3

Another test concerns K562. The experiment in a line: Cytotoxic MTS assay, K562. The conditions noted are these: Homo sapiens, 72 h, leukemia.
From the text: as §1, §2, §3

Another test has as its system K562-TAX. In words: Cytotoxic MTS assay, K562-TAX. The conditions noted are these: Homo sapiens, 72 h, paclitaxel resistant subline of K562.
From the text: as §1, §2, §3

The subject of another test is U2OS. The experiment in a line: Cytotoxic MTS assay, U2OS. The conditions noted are these: Homo sapiens, 72 h, osteosarcoma.
From the text: as §1, §2, §3

In a further test the test system is BJ. In words: Cytotoxic MTS assay, BJ fibroblasts. Particulars: Homo sapiens, 72 h, non-tumor fibroblasts.
From the text: as §1, §2, §3

For another test, the system named is CCRF-CEM. In words: Cytotoxic MTS assay, CCRF-CEM. Particulars: Homo sapiens, 72 h, T-lymphoblastic leukemia.
From the text: as §1, §2, §3

For another test, the system named is MRC-5. The experiment in a line: Cytotoxic MTS assay, MRC-5 fibroblasts. Particulars: Homo sapiens, MRC5, 72 h, non-tumor fibroblasts.
From the text: as §1, §2, §3

For the molecule `C=C(C)[C@@H]1CC[C@]2(C(=O)O)CC[C@]3(C)[C@H](CC[C@@H]4[C@@]5(C)CC[C@H](O)C(C)(C)[C@@H]5CC[C@]43C)[C@@H]12` [Compound 1, betulinic acid], the half-inhibitory concentration (IC50) was 43.4 µM in the test with A549; greater than 50 µM with HCT116p53-/-; 38 µM with HCT116; 45.4 µM in the test with CEM-DNR; 40 µM in the test on K562; 43.1 µM in the test with K562-TAX. Besides, the half-maximal inhibitory concentration (IC50) with U2OS was greater than 50 µM; with BJ it was 37.6 µM; with CCRF-CEM, 45.5 µM; in the test with MRC-5, 32.9 µM.
In the case of `C=C(CN=[N+]=[N-])[C@@H]1CC[C@]2(C(=O)O)CC[C@]3(C)C(CCC4[C@@]5(C)CC[C@H](O)C(C)(C)C5CC[C@]43C)C12` (stereo partly drawn) [Compound 8, 30-azidobetulinic acid], the IC50 was determined as 23 µM with A549; 24 µM with HCT116p53-/-; 25.5 µM with HCT116; 25.8 µM in the test with CEM-DNR; 17.2 µM with K562; 23.9 µM with K562-TAX. For the same molecule, the IC50 was 25 µM in the test on U2OS, 34 µM with BJ, 21.7 µM in the test on CCRF-CEM and 19.1 µM with MRC-5.
`C=C(Cn1cc(-c2ccccc2)nn1)[C@@H]1CC[C@]2(C(=O)O)CC[C@]3(C)C(CCC4[C@@]5(C)CC[C@H](OC(C)=O)C(C)(C)C5CC[C@]43C)C12` (stereo partly drawn) [Compound 9a]: the IC50 came out at 23.4 µM in the test on A549; 31.1 µM with HCT116p53-/-; 25.1 µM in the test on HCT116; 19.5 µM in the test on CEM-DNR; 15.1 µM in the test with K562; 19.1 µM with K562-TAX. In addition, the IC50 is 24.8 µM in the test on U2OS, greater than 50 µM with BJ, 13.4 µM in the test with CCRF-CEM and 32.4 µM in the test with MRC-5.
For `C=C(Cn1cc(-c2cccnc2)nn1)[C@@H]1CC[C@]2(C(=O)O)CC[C@]3(C)C(CCC4[C@@]5(C)CC[C@H](OC(C)=O)C(C)(C)C5CC[C@]43C)C12` (stereo partly drawn) [Compound 9d], the IC50 turned out to be 11.3 µM in the test with A549; 18.7 µM in the test with HCT116p53-/-; 19.2 µM in the test with HCT116; 12 µM in the test with CEM-DNR; 13.3 µM with K562; 11.2 µM in the test with K562-TAX. The 50% inhibitory concentration (IC50) in the test on U2OS came out at 17.3 µM; in the test on BJ, 29.9 µM; with CCRF-CEM, 14.9 µM; with MRC-5, 28.2 µM.
Turning to `C=C(Cn1cc(-c2ccc(N(C)C)cc2)nn1)[C@@H]1CC[C@]2(C(=O)O)CC[C@]3(C)C(CCC4[C@@]5(C)CC[C@H](OC(C)=O)C(C)(C)C5CC[C@]43C)C12` (stereo partly drawn) [Compound 9e], the IC50 in the test with A549 was determined as 26.6 µM; in the test on HCT116p53-/- it was 33.1 µM; in the test on HCT116, 32.9 µM; in the test on CEM-DNR, 29.6 µM; in the test on K562, 35.4 µM; in the test on K562-TAX, 30 µM. For the same molecule, the IC50 in the test with U2OS stood at 31 µM; in the test with BJ, 35.1 µM; in the test on CCRF-CEM, 19.4 µM; in the test with MRC-5 it was 30.3 µM.
As to `C=C(Cn1cc(-c2ccc(C(C)(C)C)cc2)nn1)[C@@H]1CC[C@]2(C(=O)O)CC[C@]3(C)C(CCC4[C@@]5(C)CC[C@H](OC(C)=O)C(C)(C)C5CC[C@]43C)C12` (stereo partly drawn) [Compound 9f], the concentration for half-maximal inhibition (IC50) stood at 45 µM in the test with A549; 48.4 µM with HCT116p53-/-; 41.9 µM in the test on HCT116; 15 µM in the test on CEM-DNR; 15.6 µM with K562; 23.4 µM with K562-TAX. In addition, the IC50 with U2OS is 45.8 µM; in the test with BJ, greater than 50 µM; in the test on CCRF-CEM, 34.5 µM; with MRC-5 it was greater than 50 µM.
For the molecule `C=C(Cn1cc(C2CCCC2)nn1)[C@@H]1CC[C@]2(C(=O)O)CC[C@]3(C)C(CCC4[C@@]5(C)CC[C@H](OC(C)=O)C(C)(C)C5CC[C@]43C)C12` (stereo partly drawn) [Compound 9g], the half-maximal inhibitory concentration (IC50) in the test on A549 is greater than 50 µM; in the test on HCT116p53-/-, 47.6 µM; in the test on HCT116, 38.3 µM; in the test with CEM-DNR, 30.8 µM; in the test with K562, 43.6 µM; in the test with K562-TAX it was 29.1 µM. The IC50 was 44.1 µM in the test on U2OS, greater than 50 µM with BJ, 26.2 µM in the test on CCRF-CEM and greater than 50 µM in the test on MRC-5.
On to `C=C(Cn1cc(CN)nn1)[C@@H]1CC[C@]2(C(=O)O)CC[C@]3(C)C(CCC4[C@@]5(C)CC[C@H](OC(C)=O)C(C)(C)C5CC[C@]43C)C12` (stereo partly drawn) [Compound 9h], for which the 50% inhibitory concentration (IC50) is 30.5 µM in the test with A549; greater than 50 µM in the test with HCT116p53-/-; 32 µM in the test on HCT116; 28.3 µM with CEM-DNR; greater than 50 µM in the test with K562; greater than 50 µM in the test on K562-TAX. Also, the concentration for half-maximal inhibition (IC50) was 30.6 µM in the test on U2OS, greater than 50 µM with BJ, 20.2 µM in the test with CCRF-CEM and greater than 50 µM in the test on MRC-5.
With `C=C(Cn1cc(-c2ccccc2)nn1)[C@@H]1CC[C@]2(C(=O)O)CC[C@]3(C)C(CCC4[C@@]5(C)CC[C@H](O)C(C)(C)C5CC[C@]43C)C12` (stereo partly drawn) [Compound 11a], the IC50 in the test on A549 was greater than 50 µM; in the test with HCT116p53-/-, greater than 50 µM; in the test with HCT116 it was greater than 50 µM; in the test on CEM-DNR, 23.8 µM; in the test on K562 it was greater than 50 µM; with K562-TAX, 23.3 µM. The IC50 was greater than 50 µM in the test with U2OS, greater than 50 µM with BJ, 16.6 µM in the test with CCRF-CEM and greater than 50 µM with MRC-5.
Take `C=C(Cn1cc(-c2ccccn2)nn1)[C@@H]1CC[C@]2(C(=O)O)CC[C@]3(C)C(CCC4[C@@]5(C)CC[C@H](O)C(C)(C)C5CC[C@]43C)C12` (stereo partly drawn) [Compound 11c]: the IC50 in the test with A549 was greater than 50 µM; with HCT116p53-/-, greater than 50 µM; with HCT116, greater than 50 µM; in the test with CEM-DNR it was 8.5 µM; in the test with K562, greater than 50 µM; in the test with K562-TAX it was 7.2 µM. Further, the concentration for half-maximal inhibition (IC50) in the test with U2OS is greater than 50 µM; with BJ it was greater than 50 µM; with CCRF-CEM, 14.4 µM; in the test on MRC-5 it was greater than 50 µM.
Consider `C=C(Cn1cc(-c2ccc(C(C)(C)C)cc2)nn1)[C@@H]1CC[C@]2(C(=O)O)CC[C@]3(C)C(CCC4[C@@]5(C)CC[C@H](O)C(C)(C)C5CC[C@]43C)C12` (stereo partly drawn) [Compound 11f], for which the 50% inhibitory concentration (IC50) is greater than 50 µM with A549; greater than 50 µM with HCT116p53-/-; 36.7 µM in the test with HCT116; 13.7 µM in the test with CEM-DNR; greater than 50 µM in the test with K562; 16 µM in the test with K562-TAX. In addition, the half-maximal inhibitory concentration (IC50) in the test on U2OS, in the test on BJ, in the test with CCRF-CEM and in the test with MRC-5 was greater than 50 µM in each case.
As for `C=C(Cn1cc(C2CCCC2)nn1)[C@@H]1CC[C@]2(C(=O)O)CC[C@]3(C)C(CCC4[C@@]5(C)CC[C@H](O)C(C)(C)C5CC[C@]43C)C12` (stereo partly drawn) [Compound 11g], the concentration for half-maximal inhibition (IC50) is greater than 50 µM in the test with A549; greater than 50 µM in the test with HCT116p53-/-; 33.5 µM in the test on HCT116; 38 µM in the test with CEM-DNR; greater than 50 µM with K562; 23.3 µM with K562-TAX. Also, the IC50 is greater than 50 µM in the test on U2OS, greater than 50 µM in the test on BJ, 16.7 µM in the test with CCRF-CEM and greater than 50 µM in the test on MRC-5.
